The values below come from ChEMBL document CHEMBL5442175, “EUbOPEN Chemogenomics Library - PDSP Secondary Binding” (2024).

Structures can show the parent of a compound that is named as a salt.

The target in test [1] is Sodium-dependent noradrenaline transporter (Homo sapiens, UniProt P23975). Put plainly: PDSP Secondary Binding target: SLC6A2 - Compounds are tested at 10 uM concentration, plate are incubated at room temperature in the dark for 90 minutes. Reaction are stopped by vacuum filtration onto 0.3% polyethyleneimine soaked filter mats using Filtermate harvester. Scintillation cocktail is then melted onto microwave-dried filters on a hot plate and the radio activity is counted in Microbia counter.

In test [2] the target is T1, 5-hydroxytryptamine receptor 2C (Homo sapiens, UniProt P28335).
T1 sequence (P28335 whole entry): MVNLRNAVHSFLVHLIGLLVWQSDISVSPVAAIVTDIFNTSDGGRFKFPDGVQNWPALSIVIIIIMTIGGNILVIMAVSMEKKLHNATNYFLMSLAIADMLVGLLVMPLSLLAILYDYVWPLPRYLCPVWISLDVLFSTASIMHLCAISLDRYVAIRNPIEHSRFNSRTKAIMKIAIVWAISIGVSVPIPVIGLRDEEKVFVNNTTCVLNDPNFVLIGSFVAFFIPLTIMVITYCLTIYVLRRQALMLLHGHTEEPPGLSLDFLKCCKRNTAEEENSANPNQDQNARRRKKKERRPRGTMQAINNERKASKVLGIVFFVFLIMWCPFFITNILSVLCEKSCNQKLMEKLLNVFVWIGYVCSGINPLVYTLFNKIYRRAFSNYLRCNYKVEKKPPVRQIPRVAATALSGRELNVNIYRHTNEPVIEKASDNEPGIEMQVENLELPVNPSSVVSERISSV
Put plainly: PDSP Secondary Binding target: HTR2C - Compounds are tested at 10 uM concentration, plate are incubated at room temperature in the dark for 90 minutes. Reaction are stopped by vacuum filtration onto 0.3% polyethyleneimine soaked filter mats using Filtermate harvester. Scintillation cocktail is then melted onto microwave-dried filters on a hot plate and the radio activity is counted in Microbia counter.

Test [3] deals with 5-hydroxytryptamine receptor 7 (Homo sapiens, UniProt P34969). Put plainly: PDSP Secondary Binding target: HTR7 - Compounds are tested at 10 uM concentration, plate are incubated at room temperature in the dark for 90 minutes. Reaction are stopped by vacuum filtration onto 0.3% polyethyleneimine soaked filter mats using Filtermate harvester. Scintillation cocktail is then melted onto microwave-dried filters on a hot plate and the radio activity is counted in Microbia counter.

The target in test [4] is T2, Muscarinic acetylcholine receptor M4 (Homo sapiens, UniProt P08173).
T2 sequence (P08173 whole entry): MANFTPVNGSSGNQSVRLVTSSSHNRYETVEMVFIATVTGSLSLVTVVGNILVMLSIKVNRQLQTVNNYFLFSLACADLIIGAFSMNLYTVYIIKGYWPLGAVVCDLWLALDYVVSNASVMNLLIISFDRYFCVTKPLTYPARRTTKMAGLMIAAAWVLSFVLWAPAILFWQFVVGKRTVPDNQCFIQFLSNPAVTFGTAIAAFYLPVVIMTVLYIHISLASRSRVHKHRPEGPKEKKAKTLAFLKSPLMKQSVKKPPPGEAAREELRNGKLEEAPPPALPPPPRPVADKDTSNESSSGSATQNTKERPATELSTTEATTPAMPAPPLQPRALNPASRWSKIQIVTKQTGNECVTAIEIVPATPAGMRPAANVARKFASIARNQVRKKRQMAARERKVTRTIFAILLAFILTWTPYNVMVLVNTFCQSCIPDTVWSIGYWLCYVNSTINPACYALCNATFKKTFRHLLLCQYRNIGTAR
Put plainly: PDSP Secondary Binding target: CHRM4 - Compounds are tested at 10 uM concentration, plate are incubated at room temperature in the dark for 90 minutes. Reaction are stopped by vacuum filtration onto 0.3% polyethyleneimine soaked filter mats using Filtermate harvester. Scintillation cocktail is then melted onto microwave-dried filters on a hot plate and the radio activity is counted in Microbia counter.

In test [5] the target is Histamine H1 receptor (Homo sapiens, UniProt P35367). Put plainly: PDSP Secondary Binding target: HRH1 - Compounds are tested at 10 uM concentration, plate are incubated at room temperature in the dark for 90 minutes. Reaction are stopped by vacuum filtration onto 0.3% polyethyleneimine soaked filter mats using Filtermate harvester. Scintillation cocktail is then melted onto microwave-dried filters on a hot plate and the radio activity is counted in Microbia counter.

Test [6] concerns the target Sigma non-opioid intracellular receptor 1 (Homo sapiens, UniProt Q99720). Put plainly: PDSP Secondary Binding target: SIGMAR1 - Compounds are tested at 10 uM concentration, plate are incubated at room temperature in the dark for 90 minutes. Reaction are stopped by vacuum filtration onto 0.3% polyethyleneimine soaked filter mats using Filtermate harvester. Scintillation cocktail is then melted onto microwave-dried filters on a hot plate and the radio activity is counted in Microbia counter.

For test [7], the target named is Sigma intracellular receptor 2 (Homo sapiens, UniProt Q5BJF2). Put plainly: PDSP Secondary Binding target: TMEM97 - Compounds are tested at 10 uM concentration, plate are incubated at room temperature in the dark for 90 minutes. Reaction are stopped by vacuum filtration onto 0.3% polyethyleneimine soaked filter mats using Filtermate harvester. Scintillation cocktail is then melted onto microwave-dried filters on a hot plate and the radio activity is counted in Microbia counter.

Test [8] addresses T3, 5-hydroxytryptamine receptor 3A (Homo sapiens, UniProt P46098).
T3 sequence (P46098 whole entry): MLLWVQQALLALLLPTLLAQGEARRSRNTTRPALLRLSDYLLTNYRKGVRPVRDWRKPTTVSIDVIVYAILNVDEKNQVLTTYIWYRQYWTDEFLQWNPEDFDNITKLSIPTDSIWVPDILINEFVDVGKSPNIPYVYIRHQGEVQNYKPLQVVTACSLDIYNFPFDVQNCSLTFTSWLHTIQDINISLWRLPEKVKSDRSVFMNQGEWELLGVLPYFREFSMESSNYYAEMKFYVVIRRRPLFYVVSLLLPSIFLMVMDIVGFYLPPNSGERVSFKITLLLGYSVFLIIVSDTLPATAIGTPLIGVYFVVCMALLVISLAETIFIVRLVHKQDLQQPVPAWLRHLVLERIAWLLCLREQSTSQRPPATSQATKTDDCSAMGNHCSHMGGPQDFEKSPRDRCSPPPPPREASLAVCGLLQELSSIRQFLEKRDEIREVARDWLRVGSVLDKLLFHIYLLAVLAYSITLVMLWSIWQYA
Put plainly: PDSP Secondary Binding target: HTR3A - Compounds are tested at 10 uM concentration, plate are incubated at room temperature in the dark for 90 minutes. Reaction are stopped by vacuum filtration onto 0.3% polyethyleneimine soaked filter mats using Filtermate harvester. Scintillation cocktail is then melted onto microwave-dried filters on a hot plate and the radio activity is counted in Microbia counter.

Test [9] has as its target Mu-type opioid receptor (Homo sapiens, UniProt P35372). Put plainly: PDSP Secondary Binding target: OPRM1 - Compounds are tested at 10 uM concentration, plate are incubated at room temperature in the dark for 90 minutes. Reaction are stopped by vacuum filtration onto 0.3% polyethyleneimine soaked filter mats using Filtermate harvester. Scintillation cocktail is then melted onto microwave-dried filters on a hot plate and the radio activity is counted in Microbia counter.

The target in test [10] is T4, Muscarinic acetylcholine receptor M5 (Homo sapiens, UniProt P08912).
T4 sequence (P08912 whole entry): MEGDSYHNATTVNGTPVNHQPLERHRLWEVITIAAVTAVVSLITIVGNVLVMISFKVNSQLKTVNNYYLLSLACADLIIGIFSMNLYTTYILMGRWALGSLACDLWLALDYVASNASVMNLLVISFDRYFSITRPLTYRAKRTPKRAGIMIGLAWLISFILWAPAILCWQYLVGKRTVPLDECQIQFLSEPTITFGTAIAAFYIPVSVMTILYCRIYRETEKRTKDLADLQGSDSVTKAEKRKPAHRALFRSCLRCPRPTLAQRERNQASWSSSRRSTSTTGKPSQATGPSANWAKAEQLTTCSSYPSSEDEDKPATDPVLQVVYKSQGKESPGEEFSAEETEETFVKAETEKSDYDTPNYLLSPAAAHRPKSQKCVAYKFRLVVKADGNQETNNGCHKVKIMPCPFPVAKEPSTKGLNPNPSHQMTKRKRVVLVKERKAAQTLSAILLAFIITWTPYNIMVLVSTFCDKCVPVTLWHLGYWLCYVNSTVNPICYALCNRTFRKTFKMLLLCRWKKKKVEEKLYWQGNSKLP
Put plainly: PDSP Secondary Binding target: CHRM5 - Compounds are tested at 10 uM concentration, plate are incubated at room temperature in the dark for 90 minutes. Reaction are stopped by vacuum filtration onto 0.3% polyethyleneimine soaked filter mats using Filtermate harvester. Scintillation cocktail is then melted onto microwave-dried filters on a hot plate and the radio activity is counted in Microbia counter.

Test [11] concerns the target Translocator protein (Homo sapiens, UniProt P30536). Put plainly: PDSP Secondary Binding target: TSPO - Compounds are tested at 10 uM concentration, plate are incubated at room temperature in the dark for 90 minutes. Reaction are stopped by vacuum filtration onto 0.3% polyethyleneimine soaked filter mats using Filtermate harvester. Scintillation cocktail is then melted onto microwave-dried filters on a hot plate and the radio activity is counted in Microbia counter.

Test [12] concerns the target T5, Muscarinic acetylcholine receptor M1 (Homo sapiens, UniProt P11229).
T5 sequence (P11229 whole entry): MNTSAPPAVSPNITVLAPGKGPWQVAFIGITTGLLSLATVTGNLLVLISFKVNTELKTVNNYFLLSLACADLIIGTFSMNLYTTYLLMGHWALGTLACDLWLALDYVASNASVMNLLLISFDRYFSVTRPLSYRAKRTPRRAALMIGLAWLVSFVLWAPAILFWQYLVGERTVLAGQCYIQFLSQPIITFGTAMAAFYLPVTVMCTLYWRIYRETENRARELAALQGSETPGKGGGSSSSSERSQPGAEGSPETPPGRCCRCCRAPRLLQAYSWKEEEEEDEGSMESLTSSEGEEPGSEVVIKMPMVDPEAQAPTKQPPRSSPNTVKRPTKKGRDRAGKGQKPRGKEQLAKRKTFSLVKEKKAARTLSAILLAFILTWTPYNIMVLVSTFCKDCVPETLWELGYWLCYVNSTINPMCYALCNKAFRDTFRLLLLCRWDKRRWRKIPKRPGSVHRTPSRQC
Put plainly: PDSP Secondary Binding target: CHRM1 - Compounds are tested at 10 uM concentration, plate are incubated at room temperature in the dark for 90 minutes. Reaction are stopped by vacuum filtration onto 0.3% polyethyleneimine soaked filter mats using Filtermate harvester. Scintillation cocktail is then melted onto microwave-dried filters on a hot plate and the radio activity is counted in Microbia counter.

The target of test [13] is T6, D(4) dopamine receptor (Homo sapiens, UniProt P21917).
T6 sequence (P21917 whole entry): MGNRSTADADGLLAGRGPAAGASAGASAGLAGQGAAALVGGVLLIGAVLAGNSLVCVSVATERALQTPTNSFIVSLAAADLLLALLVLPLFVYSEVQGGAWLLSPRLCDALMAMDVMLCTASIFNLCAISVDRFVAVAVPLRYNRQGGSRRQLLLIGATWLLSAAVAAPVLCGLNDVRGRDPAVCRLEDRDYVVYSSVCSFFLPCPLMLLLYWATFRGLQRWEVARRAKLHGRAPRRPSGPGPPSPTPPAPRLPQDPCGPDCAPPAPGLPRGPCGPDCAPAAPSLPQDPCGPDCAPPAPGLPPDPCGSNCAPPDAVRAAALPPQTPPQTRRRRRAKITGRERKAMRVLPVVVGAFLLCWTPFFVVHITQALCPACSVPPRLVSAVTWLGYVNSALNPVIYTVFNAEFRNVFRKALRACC
Put plainly: PDSP Secondary Binding target: DRD4 - Compounds are tested at 10 uM concentration, plate are incubated at room temperature in the dark for 90 minutes. Reaction are stopped by vacuum filtration onto 0.3% polyethyleneimine soaked filter mats using Filtermate harvester. Scintillation cocktail is then melted onto microwave-dried filters on a hot plate and the radio activity is counted in Microbia counter.

Test [14] addresses 5-hydroxytryptamine receptor 5A (Homo sapiens, UniProt P47898). Put plainly: PDSP Secondary Binding target: HTR5A - Compounds are tested at 10 uM concentration, plate are incubated at room temperature in the dark for 90 minutes. Reaction are stopped by vacuum filtration onto 0.3% polyethyleneimine soaked filter mats using Filtermate harvester. Scintillation cocktail is then melted onto microwave-dried filters on a hot plate and the radio activity is counted in Microbia counter.

The target of test [15] is 5-hydroxytryptamine receptor 6 (Homo sapiens, UniProt P50406). Put plainly: PDSP Secondary Binding target: HTR6 - Compounds are tested at 10 uM concentration, plate are incubated at room temperature in the dark for 90 minutes. Reaction are stopped by vacuum filtration onto 0.3% polyethyleneimine soaked filter mats using Filtermate harvester. Scintillation cocktail is then melted onto microwave-dried filters on a hot plate and the radio activity is counted in Microbia counter.

Test [16] has as its target 5-hydroxytryptamine receptor 1D (Homo sapiens, UniProt P28221). Put plainly: PDSP Secondary Binding target: HTR1D - Compounds are tested at 10 uM concentration, plate are incubated at room temperature in the dark for 90 minutes. Reaction are stopped by vacuum filtration onto 0.3% polyethyleneimine soaked filter mats using Filtermate harvester. Scintillation cocktail is then melted onto microwave-dried filters on a hot plate and the radio activity is counted in Microbia counter.

Sequence of Sigma non-opioid intracellular receptor 1 (Q99720 whole entry): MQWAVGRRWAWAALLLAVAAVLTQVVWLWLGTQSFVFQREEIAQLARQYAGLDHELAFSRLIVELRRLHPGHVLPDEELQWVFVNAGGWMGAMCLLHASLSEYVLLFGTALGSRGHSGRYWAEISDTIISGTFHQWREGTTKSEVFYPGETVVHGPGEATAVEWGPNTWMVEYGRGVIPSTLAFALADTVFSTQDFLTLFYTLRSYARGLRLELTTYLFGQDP
Sequence of Sigma intracellular receptor 2 (Q5BJF2 whole entry): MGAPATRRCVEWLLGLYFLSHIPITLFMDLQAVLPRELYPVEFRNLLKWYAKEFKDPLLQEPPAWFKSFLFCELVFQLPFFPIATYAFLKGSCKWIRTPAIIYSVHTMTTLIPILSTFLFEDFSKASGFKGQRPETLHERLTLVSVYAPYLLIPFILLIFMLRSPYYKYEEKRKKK
Sequence of Sodium-dependent noradrenaline transporter (P23975 whole entry): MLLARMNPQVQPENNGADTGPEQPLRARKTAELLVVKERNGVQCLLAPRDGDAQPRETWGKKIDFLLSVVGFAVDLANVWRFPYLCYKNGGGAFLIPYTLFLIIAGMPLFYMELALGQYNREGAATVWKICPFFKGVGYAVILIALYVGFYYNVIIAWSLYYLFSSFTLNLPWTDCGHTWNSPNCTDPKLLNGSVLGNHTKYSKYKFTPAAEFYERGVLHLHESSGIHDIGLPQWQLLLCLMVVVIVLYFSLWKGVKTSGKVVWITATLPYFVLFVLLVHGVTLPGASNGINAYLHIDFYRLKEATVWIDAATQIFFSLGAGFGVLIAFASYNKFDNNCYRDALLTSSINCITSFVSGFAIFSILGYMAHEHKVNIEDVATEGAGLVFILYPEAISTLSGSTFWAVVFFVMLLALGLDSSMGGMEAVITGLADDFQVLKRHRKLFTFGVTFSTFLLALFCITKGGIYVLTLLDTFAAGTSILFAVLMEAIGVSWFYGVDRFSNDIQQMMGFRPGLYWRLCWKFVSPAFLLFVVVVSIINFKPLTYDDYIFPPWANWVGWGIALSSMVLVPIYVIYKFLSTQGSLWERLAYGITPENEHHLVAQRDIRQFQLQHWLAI
Sequence of Histamine H1 receptor (P35367 whole entry): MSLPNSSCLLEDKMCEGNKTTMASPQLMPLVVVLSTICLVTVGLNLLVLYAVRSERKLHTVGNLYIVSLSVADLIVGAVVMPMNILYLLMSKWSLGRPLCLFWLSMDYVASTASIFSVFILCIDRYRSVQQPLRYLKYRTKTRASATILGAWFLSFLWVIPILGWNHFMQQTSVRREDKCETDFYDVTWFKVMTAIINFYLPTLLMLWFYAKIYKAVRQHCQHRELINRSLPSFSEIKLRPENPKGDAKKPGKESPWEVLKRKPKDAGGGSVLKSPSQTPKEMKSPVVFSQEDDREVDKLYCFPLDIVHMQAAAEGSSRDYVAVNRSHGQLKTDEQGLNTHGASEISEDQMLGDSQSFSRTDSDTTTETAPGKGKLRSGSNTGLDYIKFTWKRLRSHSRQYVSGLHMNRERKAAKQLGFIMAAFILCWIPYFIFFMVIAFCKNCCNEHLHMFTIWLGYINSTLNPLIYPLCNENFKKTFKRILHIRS
Sequence of Translocator protein (P30536 whole entry): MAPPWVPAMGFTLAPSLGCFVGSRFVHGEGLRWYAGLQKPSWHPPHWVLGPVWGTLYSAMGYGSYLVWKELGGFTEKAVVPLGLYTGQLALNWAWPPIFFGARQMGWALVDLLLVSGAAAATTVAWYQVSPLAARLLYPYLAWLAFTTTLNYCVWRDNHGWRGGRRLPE
Sequence of 5-hydroxytryptamine receptor 6 (P50406 whole entry): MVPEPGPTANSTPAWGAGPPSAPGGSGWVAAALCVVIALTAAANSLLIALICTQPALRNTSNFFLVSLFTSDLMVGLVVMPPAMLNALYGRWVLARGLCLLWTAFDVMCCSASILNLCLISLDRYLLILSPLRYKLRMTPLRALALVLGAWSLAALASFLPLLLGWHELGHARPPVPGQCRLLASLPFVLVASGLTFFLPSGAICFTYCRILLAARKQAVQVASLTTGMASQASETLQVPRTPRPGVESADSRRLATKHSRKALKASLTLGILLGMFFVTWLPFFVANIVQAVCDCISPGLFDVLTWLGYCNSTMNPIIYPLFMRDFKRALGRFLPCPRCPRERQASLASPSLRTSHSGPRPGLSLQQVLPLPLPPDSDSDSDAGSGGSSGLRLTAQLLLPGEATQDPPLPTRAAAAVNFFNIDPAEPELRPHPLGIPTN
Sequence of Mu-type opioid receptor (P35372 whole entry): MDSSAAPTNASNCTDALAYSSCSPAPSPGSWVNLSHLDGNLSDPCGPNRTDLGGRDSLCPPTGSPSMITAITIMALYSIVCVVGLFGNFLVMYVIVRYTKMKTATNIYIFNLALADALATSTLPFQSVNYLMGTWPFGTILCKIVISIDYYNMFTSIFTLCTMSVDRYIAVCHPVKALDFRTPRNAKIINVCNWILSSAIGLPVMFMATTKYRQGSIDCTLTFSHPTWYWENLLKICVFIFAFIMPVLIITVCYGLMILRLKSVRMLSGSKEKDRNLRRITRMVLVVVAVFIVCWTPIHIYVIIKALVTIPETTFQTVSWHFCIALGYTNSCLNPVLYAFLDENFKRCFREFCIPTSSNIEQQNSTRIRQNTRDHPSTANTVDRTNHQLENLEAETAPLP
Sequence of 5-hydroxytryptamine receptor 5A (P47898 whole entry): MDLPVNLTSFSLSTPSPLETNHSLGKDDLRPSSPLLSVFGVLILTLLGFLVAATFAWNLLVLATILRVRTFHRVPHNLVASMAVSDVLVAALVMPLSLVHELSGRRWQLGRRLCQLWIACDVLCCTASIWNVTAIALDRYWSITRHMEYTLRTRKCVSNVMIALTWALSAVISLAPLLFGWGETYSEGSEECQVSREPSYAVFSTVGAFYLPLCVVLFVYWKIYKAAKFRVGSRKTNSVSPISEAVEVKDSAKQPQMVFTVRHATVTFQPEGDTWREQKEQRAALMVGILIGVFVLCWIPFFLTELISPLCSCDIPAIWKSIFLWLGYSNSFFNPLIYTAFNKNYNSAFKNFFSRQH
Sequence of 5-hydroxytryptamine receptor 7 (P34969 whole entry): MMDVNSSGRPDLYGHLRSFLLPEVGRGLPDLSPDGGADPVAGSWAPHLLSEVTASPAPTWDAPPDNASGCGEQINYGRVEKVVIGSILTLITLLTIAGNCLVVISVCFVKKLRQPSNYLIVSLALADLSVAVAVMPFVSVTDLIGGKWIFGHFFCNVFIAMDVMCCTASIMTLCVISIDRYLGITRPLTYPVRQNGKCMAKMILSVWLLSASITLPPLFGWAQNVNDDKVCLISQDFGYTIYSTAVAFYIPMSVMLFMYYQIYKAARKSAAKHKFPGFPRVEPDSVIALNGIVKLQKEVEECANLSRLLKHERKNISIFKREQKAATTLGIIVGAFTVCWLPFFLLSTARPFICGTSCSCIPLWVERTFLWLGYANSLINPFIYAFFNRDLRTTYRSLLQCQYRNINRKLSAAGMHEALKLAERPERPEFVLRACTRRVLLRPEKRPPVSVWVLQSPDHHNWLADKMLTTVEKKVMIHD
Sequence of 5-hydroxytryptamine receptor 1D (P28221 whole entry): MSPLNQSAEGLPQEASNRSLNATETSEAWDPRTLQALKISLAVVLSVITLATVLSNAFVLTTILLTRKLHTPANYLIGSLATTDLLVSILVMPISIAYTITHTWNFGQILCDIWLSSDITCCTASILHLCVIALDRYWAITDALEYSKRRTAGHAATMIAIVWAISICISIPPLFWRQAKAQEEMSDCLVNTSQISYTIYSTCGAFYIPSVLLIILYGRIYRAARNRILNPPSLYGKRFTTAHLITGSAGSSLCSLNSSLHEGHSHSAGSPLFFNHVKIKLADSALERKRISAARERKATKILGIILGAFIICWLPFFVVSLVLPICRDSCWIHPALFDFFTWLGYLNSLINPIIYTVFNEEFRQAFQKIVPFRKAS

A word on the Ki: it is the equilibrium dissociation constant of an inhibitor or competing ligand from its target. A higher Ki goes with lower affinity. As to `Clc1ccc(CCCOCCCN2CCCCC2)cc1` [PITOLISANT HYDROCHLORIDE], the inhibition constant (Ki) is 1.92 µM in test [1]; 1.99 µM in test [2]; 1.1 µM in [3]; 0.899 µM in test [4]; 1.2 µM in test [5]; 0.000904 µM in [6]. The affinity in test [7], expressed as Ki, was 0.00701 µM.

Consider `CCc1nn2c(C)cc(C)nc2c1Cc1ccc(-c2nnc(C3CCNCC3)o2)cc1`, for which the inhibition constant (Ki) in test [8] is 0.36 µM; in test [9], 7.72 µM; in [6], 2 µM; in [7] it was 0.489 µM.

Take `C[N+]1(C)[C@@H]2C[C@@H](OC(=O)C(O)(c3cccs3)c3cccs3)C[C@H]1[C@@H]1O[C@@H]12` [TIOTROPIUM BROMIDE]: the Ki in [10] amounted to 0.00122 µM; in [4], 0.0006 µM; in test [11], 4.29 µM; in test [7], 2.06 µM.

As for `Cc1ccc(O)c([C@H](CCN(C(C)C)C(C)C)c2ccccc2)c1` [TOLTERODINE TARTRATE], the inhibition constant (Ki) in [10] came out at 0.00386 µM; in [12], 0.00869 µM; in test [5], 0.127 µM; in [6] it was 0.216 µM; in test [7], 0.167 µM.

As to `CC(C)[C@H](CO)Nc1nc(Nc2cccc(Cl)c2)c2ncn(C(C)C)c2n1` [PURVALANOLA], the Ki is 4.87 µM in test [13]; 4.4 µM in [1]; 3.04 µM in test [2]; 7.54 µM in [14]; over 10 µM in [4]; 1.52 µM in test [11]. For the same compound, the values for the Ki in test [15], in [16] and in test [7] were 2.27 µM, 3.8 µM and 1.13 µM, respectively.
